Test results reported in PMC9967085, “Properly Substituted Benzimidazoles as a New Promising Class of Nicotinate Phosphoribosyltransferase (NAPRT) Modulators” (Pharmaceuticals, 2023).
Read-outs that look alike come from different tables or passages of the source.

Key:
NAPRT [1] = biological target: NAPRT; set-up: method as in PMID 4255930; conditions: cited from earlier work
NAPRT [2] = biological target: NAPRT; set-up: method as in PMID 4333776; conditions: cited from earlier work
NAPRT [3] = system: NAPRT; set-up: method as in PMID 35890155; conditions: cited from earlier work
NAPRT [4] = biological target: NAPRT; set-up: method as in PMID 35890147; conditions: cited from earlier work
Human recombinant NAPRT = biological target: T1, Human recombinant NAPRT (Homo sapiens, UniProt Q6XQN6); assay: HPLC-based NAPRT activity screening assay; assay type: biochemical
T1 construct: made in house
T1 sequence (Q6XQN6 1-538): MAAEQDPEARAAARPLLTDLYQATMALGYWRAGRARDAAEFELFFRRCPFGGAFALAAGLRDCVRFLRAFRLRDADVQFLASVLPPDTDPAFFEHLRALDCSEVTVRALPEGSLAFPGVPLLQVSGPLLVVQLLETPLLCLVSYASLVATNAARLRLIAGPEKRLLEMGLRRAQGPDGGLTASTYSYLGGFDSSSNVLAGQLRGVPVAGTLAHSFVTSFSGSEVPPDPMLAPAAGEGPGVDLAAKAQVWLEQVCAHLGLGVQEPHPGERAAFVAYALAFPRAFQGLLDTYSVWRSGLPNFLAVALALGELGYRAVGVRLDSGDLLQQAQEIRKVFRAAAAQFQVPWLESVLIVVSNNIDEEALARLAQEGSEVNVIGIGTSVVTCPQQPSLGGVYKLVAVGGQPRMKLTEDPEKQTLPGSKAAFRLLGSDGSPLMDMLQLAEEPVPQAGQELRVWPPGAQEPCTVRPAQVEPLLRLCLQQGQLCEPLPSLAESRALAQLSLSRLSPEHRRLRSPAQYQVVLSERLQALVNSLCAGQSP

[5] = 1 mM compound, 0.2 mM NA, 0.4 mM PRPP
[6] = 1 mM compound, 0.2 mM NA, 0.4 mM PRPP, read-out: % Inhibition
[7] = 1 mM compound, 0.2 mM NA, 0.4 mM PRPP, read-out: % Inhibition (not active class)

For `O=C(O)c1cccnc1F` [Compound 2], the Ki (NAPRT [1]) is listed as 280 µM.

For `CCCCC1C(=O)N(c2ccccc2)N(c2ccccc2)C1=O` [Compound 4, phenylbutazone], the Ki (NAPRT [2]) is given as 160 µM.

For `O=C(O)c1ccccc1Nc1cccc(C(F)(F)F)c1` [Compound 5, flufenamic acid], the Ki (NAPRT [2]) is listed as 46 µM.

For `Cc1cccc(Nc2ccccc2C(=O)O)c1C` [Compound 6, mefenamic acid], the Ki (NAPRT [2]) is listed as 76 µM.

For `O=C(O)c1ccccc1O` [Compound 7, salicylic acid], the Ki (NAPRT [2]) is listed as 160 µM.

For `CC(C)(C)C(=O)OCCCn1cc(CCCN2C[C@@H](O)[C@@H](O)[C@@H]2NC(=O)c2ccccc2)nn1` [Compound 8], the IC50 (NAPRT [3]) is listed as 327 µM.

In the case of `CC(C)(C)C(=O)OCCCn1cc(CCCN2C[C@@H](O)[C@@H](O)[C@@H]2Cn2cc(-c3ccccc3)nn2)nn1` [Compound 9], the IC50 (NAPRT [3]) is given as 242 µM.

In the case of `NCc1cc2c(cc1Cl)OCO2` [Compound 10], the IC50 (NAPRT [3]) is listed as 160 µM.

In the case of `O=C(Cn1c(=O)sc2ccccc21)Nc1cccc(C(=O)O)c1` [Compound 11], the IC50 (NAPRT [3]) is listed as 232 µM.

In the case of `CC(Oc1ccccc1Cl)C(=O)Nc1cccc(C(=O)O)c1` (stereo not drawn) [Compound 12], the IC50 (NAPRT [3]) is listed as 265 µM.

For `O=C(N[C@@H](C(=O)c1ccccc1)n1cnccc1=O)c1ccccc1` [Compound 13], the Ki (NAPRT [4]) is given as 2300 µM.

In the case of `O=C(NC(Sc1ccncn1)C(=O)c1ccccc1)c1ccccc1` (stereo not drawn) [Compound 14], the Ki (NAPRT [4]) is listed as 89 µM.

For `O=C(O)c1cnccc1O` [Compound 15], the Ki (NAPRT [4]) is listed as 308 µM.

In the case of `O=C(O)c1cnsn1` [Compound 16], the Ki (NAPRT [4]) is listed as 295 µM.

For `CC(=O)NCc1cccc(CNc2ccc3c(c2)nc(C)n3C)c1` [Compound 17, N-(3-(((1,2-dimethyl-1H-benzo[d]imidazol-5-yl)amino)methyl)benzyl)acetamide], the “% Inhibition” value (Human recombinant NAPRT; [5]) was 30.3 ± 6.0%, the “-Fold Stimulation (not active class)” value (Human recombinant NAPRT; [5]) was “-^b (Not active, it is referred to compounds showing less than 10% inhibition or less than 1.10-fold stimulation)” and the inhibition at 1000 µM (Human recombinant NAPRT; [6]) was 30%.

With `Cc1nc2cc(NCc3cccc(CN)c3)ccc2n1C` [Compound 19, N-(3-(aminomethyl)benzyl)-1,2-dimethyl-1H-benzo[d]imidazol-5-amine] the “Effect on NAPRT catalytic activity (in words)” value (shortened to “Effect”) (Human recombinant NAPRT) was “inactive”, the “-Fold Stimulation (not active class)” value (Human recombinant NAPRT; [5]) was “- (Not active, it is referred to compounds showing less than 10% inhibition or less than 1.10-fold stimulation)” and the inhibition at 1000 µM (Human recombinant NAPRT; [6]) was 0.6 ± 0.9%. It also gave an inhibition at 1000 µM (Human recombinant NAPRT; [7]) of less than 10%.

In the case of `Cc1nc2cc(NCc3cccc(N)c3)ccc2n1C` [Compound 20, N-(3-aminobenzyl)-1,2-dimethyl-1H-benzo[d]imidazol-5-amine], the “Effect” value (Human recombinant NAPRT) is reported as “NAPRT activators”, the “-Fold Stimulation” value (Human recombinant NAPRT; [5]) is reported as 1.25 ± 0.05 fold and the inhibition at 1000 µM (Human recombinant NAPRT; [7]) is reported as less than 10%.

With `CC(=O)NCc1cccc(CN(C)c2ccc3c(c2)nc(C)n3C)c1` [Compound 21, N-(3-(((1,2-dimethyl-1H-benzo[d]imidazol-5-yl)(methyl)amino)methyl)benzyl) acetamide] the “-Fold Stimulation” value (Human recombinant NAPRT; [5]) was 0 fold, the “-Fold Stimulation (not active class)” value (Human recombinant NAPRT; [5]) was “- (Not active, it is referred to compounds showing less than 10% inhibition or less than 1.10-fold stimulation)” and the inhibition at 1000 µM (Human recombinant NAPRT; [6]) was 0%. The inhibition at 1000 µM (Human recombinant NAPRT; [7]) was less than 10%.

For `CC(=O)Nc1cccc(CN(C)c2ccc3c(c2)nc(C)n3C)c1` [Compound 22, N-(3-(((1,2-dimethyl-1H-benzo[d]imidazol-5-yl)(methyl)amino)methyl)phenyl) acetamide], the “-Fold Stimulation (not active class)” value (Human recombinant NAPRT; [5]) was “- (Not active, it is referred to compounds showing less than 10% inhibition or less than 1.10-fold stimulation)”, the inhibition at 1000 µM (Human recombinant NAPRT; [6]) was 5 ± 1.2% and the inhibition at 1000 µM (Human recombinant NAPRT; [7]) was less than 10%.

With `Cc1nc2cc(N(C)Cc3cccc(CN)c3)ccc2n1C` [Compound 23, N-(3-(aminomethyl)benzyl)-N,1,2-trimethyl-1H-benzo[d]imidazol-5-amine] the “Effect” value (Human recombinant NAPRT) was “NAPRT activators”, the “-Fold Stimulation” value (Human recombinant NAPRT; [5]) was 1.14 ± 0.05 fold and the inhibition at 1000 µM (Human recombinant NAPRT; [7]) was less than 10%.

For `Cc1nc2cc(N(C)Cc3cccc(N)c3)ccc2n1C` [Compound 24, N-(3-aminobenzyl)-N,1,2-trimethyl-1H-benzo[d]imidazol-5-amine], the “Effect” value (Human recombinant NAPRT) was “NAPRT activators”, the “-Fold Stimulation” value (Human recombinant NAPRT; [5]) was 1.44 ± 0.04 fold and the inhibition at 1000 µM (Human recombinant NAPRT; [7]) was less than 10%.

With `CC(=O)NCc1ccc(CNc2ccc3c(c2)nc(C)n3C)cc1` [Compound 25, N-(4-(((1,2-dimethyl-1H-benzo[d]imidazol-5-yl)amino)methyl)benzyl)acetamide] the “Effect” value (Human recombinant NAPRT) was “inhibit NAPRT activity”, the “-Fold Stimulation (not active class)” value (Human recombinant NAPRT; [5]) was “- (Not active, it is referred to compounds showing less than 10% inhibition or less than 1.10-fold stimulation)” and the inhibition at 1000 µM (Human recombinant NAPRT; [6]) was 13 ± 3.1%.

With `CC(=O)Nc1ccc(CNc2ccc3c(c2)nc(C)n3C)cc1` [Compound 26, N-(4-(((1,2-dimethyl-1H-benzo[d]imidazol-5-yl)amino)methyl)phenyl)acetamide] the “-Fold Stimulation (not active class)” value (Human recombinant NAPRT; [5]) was “- (Not active, it is referred to compounds showing less than 10% inhibition or less than 1.10-fold stimulation)”, the inhibition at 1000 µM (Human recombinant NAPRT; [6]) was 1.3% and the inhibition at 1000 µM (Human recombinant NAPRT; [7]) was less than 10%.

For `Cc1nc2cc(NCc3ccc(CN)cc3)ccc2n1C` [Compound 27, N-(4-(aminomethyl)benzyl)-1,2-dimethyl-1H-benzo[d]imidazol-5-amine], the “-Fold Stimulation (not active class)” value (Human recombinant NAPRT; [5]) was “- (Not active, it is referred to compounds showing less than 10% inhibition or less than 1.10-fold stimulation)”, the inhibition at 1000 µM (Human recombinant NAPRT; [6]) was 1.9 ± 0.9% and the inhibition at 1000 µM (Human recombinant NAPRT; [7]) was less than 10%.

In the case of `Cc1nc2cc(NCc3ccc(N)cc3)ccc2n1C` [Compound 28, N-(4-aminobenzyl)-1,2-dimethyl-1H-benzo[d]imidazol-5-amine], the “-Fold Stimulation” value (Human recombinant NAPRT; [5]) is reported as 0 fold, the “-Fold Stimulation (not active class)” value (Human recombinant NAPRT; [5]) is reported as “- (Not active, it is referred to compounds showing less than 10% inhibition or less than 1.10-fold stimulation)” and the inhibition at 1000 µM (Human recombinant NAPRT; [6]) is reported as 0%. For the same compound, the inhibition at 1000 µM (Human recombinant NAPRT; [7]) was less than 10%.

With `CC(=O)NCc1ccc(CN(C)c2ccc3c(c2)nc(C)n3C)cc1` [Compound 29, N-(4-(((1,2-dimethyl-1H-benzo[d]imidazol-5-yl)(methyl)amino)methyl)benzyl) acetamide] the “Effect” value (Human recombinant NAPRT) was “inhibit NAPRT activity”, the “-Fold Stimulation (not active class)” value (Human recombinant NAPRT; [5]) was “- (Not active, it is referred to compounds showing less than 10% inhibition or less than 1.10-fold stimulation)” and the inhibition at 1000 µM (Human recombinant NAPRT; [6]) was 12 ± 2.2%.

With `CC(=O)Nc1ccc(CN(C)c2ccc3c(c2)nc(C)n3C)cc1` [Compound 30, N-(4-(((1,2-dimethyl-1H-benzo[d]imidazol-5-yl)(methyl)amino)methyl)phenyl) acetamide] the “-Fold Stimulation” value (Human recombinant NAPRT; [5]) was 0 fold, the “-Fold Stimulation (not active class)” value (Human recombinant NAPRT; [5]) was “- (Not active, it is referred to compounds showing less than 10% inhibition or less than 1.10-fold stimulation)” and the inhibition at 1000 µM (Human recombinant NAPRT; [6]) was 0%. It also gave an inhibition at 1000 µM (Human recombinant NAPRT; [7]) of less than 10%.

For `Cc1nc2cc(N(C)Cc3ccc(CN)cc3)ccc2n1C` [Compound 31, N-(4-(aminomethyl)benzyl)-N,1,2-trimethyl-1H-benzo[d]imidazol-5-amine], the “Effect” value (Human recombinant NAPRT) was “NAPRT activators”, the “-Fold Stimulation” value (Human recombinant NAPRT; [5]) was 1.58 ± 0.07 fold and the inhibition at 1000 µM (Human recombinant NAPRT; [7]) was less than 10%.

For “N-(3-(((1,2-dimethyl-1H-benzo[d]imidazol-5-yl)(methyl)amino)methyl)benzyl) acetamide [Compound 33]”, the “% Inhibition (not active class)” value (Human recombinant NAPRT; [5]) was “- (Not active, it is referred to compounds showing less than 10% inhibition or less than 1.10-fold stimulation)”, the “-Fold Stimulation” value (Human recombinant NAPRT; [5]) was 1.08 ± 0.03 fold and the “-Fold Stimulation (not active class)” value (Human recombinant NAPRT; [5]) was “- (Not active, it is referred to compounds showing less than 10% inhibition or less than 1.10-fold stimulation)”.

With “N-(3-(((1,2-dimethyl-1H-benzo[d]imidazol-5-yl)amino)methyl)benzyl)acetamide [Compound 32]” the “Effect” value (Human recombinant NAPRT) was “NAPRT activators”, the “% Inhibition (not active class)” value (Human recombinant NAPRT; [5]) was “- (Not active, it is referred to compounds showing less than 10% inhibition or less than 1.10-fold stimulation)” and the “-Fold Stimulation” value (Human recombinant NAPRT; [5]) was 1.47 ± 0.07 fold.
